Data on 1 compound can be found in paper PMC6198068, “Discovery of a Novel Nav1.7 Inhibitor From Cyriopagopus albostriatus Venom With Potent Analgesic Efficacy” (Frontiers in Pharmacology, 2018).

Where a SMILES comes first, the peptide text is derived from it. Bridges are numbered along the chain shown (N, C = ends).

One data set concerns Nav1.7/D816N/E818Q. The experiment in a line: Whole-cell patch-clamp, Nav1.7/D816N/E818Q in HEK293T cells. It counts as cell-based, human. The conditions noted are these: 1 μM, n = 5 cells. The text has this: (§1) The cDNA genes encoding rat Nav1.4 and human Nav1.7 were subcloned into vectors pRGB4 and pcDNA3.1-mod, respectively. Mutations of rNav1.4 (N655D, Q657E, and N655D/Q657E) and hNav1.7 (D816N, E818Q, and D816N/E818Q) were constructed using the Gene Tailor Site-Directed Mutagenesis system (Invitrogen, Carlsbad, CA, United States), according to the manufacturer’s instructions. Nav1.2–Nav1.7 and mutant plasmids together with eGFP were transiently transfected into HEK293T cells while Nav1.8 together with eGFP was transiently transfected into ND7/23 cells by Lipofectamine 2000 (Invitrogen, Carlsbad, CA, United States). Additionally, plasmids β1- and β2-eGFP encoding the human β1 and β2 subunits, respectively, were co-transfected with those encoding WT Nav1.7 and Nav1.7 mutations in HEK293T cells. […] Cells with green fluorescent protein fluorescence were selected for whole-cell patch-clamp recordings 24 h after transfection.
(§2) Whole-cell patch-clamp recordings were performed at room temperature (20–25°C) using an EPC 10 USB Patch Clamp Amplifier (HEKA, Elektronik, Lambrecht, Germany). […] Data was analyzed by software Igo Pro 6.10A (WaveMetrics, Lake Oswego, OR, United States), SigmaPlot 10.0 (Sigma-Aldrich, St. Louis, MO, United States), OriginPro 8 (OriginLab Corp., Northampton, MA, United States), and GraphPad Prism 5 (GraphPad Software, San Diego, CA, United States). […]

The next data set concerns the target T1, Nav1.4/Q657E (Rattus norvegicus, UniProt P15390, Q657E).
T1 construct: expressed in transfected cells; host or cells: HEK293T
The experiment in a line: Whole-cell patch-clamp, Nav1.4/Q657E in HEK293T cells. It is filed as cell-based.
Source text: as §1, §2

Another data set concerns the target T2, Nav1.7 (Homo sapiens, UniProt Q15858).
T2 construct: expressed in transfected cells; host or cells: HEK293T
Nature of the data set: Steady-state slow inactivation of Nav1.7. To be noted: 0.2 μM; 15 s pre-pulses; control −52.62 ± 3.79 mV; P < 0.01 paired t-test; mean ± SEM, n = 6–11 cells. It counts as cell-based.
Source text: as §1, with “States).” for “States). Additionally, plasmids β1- and β2-eGFP encoding the human β1 and β2 subunits, respectively, were co-transfected with those encoding WT Nav1.7 and Nav1.7 mutations in HEK293T cells.”
as §2
Fast inactivation time constants were calculated by fitting current decay traces with a single exponential function using the I–V protocol described above. […]

The next data set concerns Nav1.8. Nature of the data set: Whole-cell patch-clamp, Nav1.8 in ND7/23 cells. It is filed as cell-based. The conditions noted are these: up to 10 μM, depolarization to +20 mV.
Source text: as §1, §2

A short description of data set [1]: Adverse effects at the doses used in the mouse pain models. It is filed as in vivo, ICR mice. The conditions noted are these: dose of Ca2a used in this study (50–200 μg/kg i.p.). How it is done:
The ICR mice (18–22 g) used in this study were purchased from the Experimental Animal Center of SLac-kinda (Changsha, China). The animals were maintained at 20–25°C and freely allowed to standard rodent chow and water ad libitum. Ethical approval for in vivo experiments in animals was approved by the Animal Care and Use Committee (ACUC) at the Hunan Province Animal Management Office (HPAMO).

As usually defined, the IC50 is the concentration that inhibits the measured activity by half. Low readings indicate greater potency in that assay, high ones weaker potency in that assay.

T1 sequence (P15390 whole entry Q657E): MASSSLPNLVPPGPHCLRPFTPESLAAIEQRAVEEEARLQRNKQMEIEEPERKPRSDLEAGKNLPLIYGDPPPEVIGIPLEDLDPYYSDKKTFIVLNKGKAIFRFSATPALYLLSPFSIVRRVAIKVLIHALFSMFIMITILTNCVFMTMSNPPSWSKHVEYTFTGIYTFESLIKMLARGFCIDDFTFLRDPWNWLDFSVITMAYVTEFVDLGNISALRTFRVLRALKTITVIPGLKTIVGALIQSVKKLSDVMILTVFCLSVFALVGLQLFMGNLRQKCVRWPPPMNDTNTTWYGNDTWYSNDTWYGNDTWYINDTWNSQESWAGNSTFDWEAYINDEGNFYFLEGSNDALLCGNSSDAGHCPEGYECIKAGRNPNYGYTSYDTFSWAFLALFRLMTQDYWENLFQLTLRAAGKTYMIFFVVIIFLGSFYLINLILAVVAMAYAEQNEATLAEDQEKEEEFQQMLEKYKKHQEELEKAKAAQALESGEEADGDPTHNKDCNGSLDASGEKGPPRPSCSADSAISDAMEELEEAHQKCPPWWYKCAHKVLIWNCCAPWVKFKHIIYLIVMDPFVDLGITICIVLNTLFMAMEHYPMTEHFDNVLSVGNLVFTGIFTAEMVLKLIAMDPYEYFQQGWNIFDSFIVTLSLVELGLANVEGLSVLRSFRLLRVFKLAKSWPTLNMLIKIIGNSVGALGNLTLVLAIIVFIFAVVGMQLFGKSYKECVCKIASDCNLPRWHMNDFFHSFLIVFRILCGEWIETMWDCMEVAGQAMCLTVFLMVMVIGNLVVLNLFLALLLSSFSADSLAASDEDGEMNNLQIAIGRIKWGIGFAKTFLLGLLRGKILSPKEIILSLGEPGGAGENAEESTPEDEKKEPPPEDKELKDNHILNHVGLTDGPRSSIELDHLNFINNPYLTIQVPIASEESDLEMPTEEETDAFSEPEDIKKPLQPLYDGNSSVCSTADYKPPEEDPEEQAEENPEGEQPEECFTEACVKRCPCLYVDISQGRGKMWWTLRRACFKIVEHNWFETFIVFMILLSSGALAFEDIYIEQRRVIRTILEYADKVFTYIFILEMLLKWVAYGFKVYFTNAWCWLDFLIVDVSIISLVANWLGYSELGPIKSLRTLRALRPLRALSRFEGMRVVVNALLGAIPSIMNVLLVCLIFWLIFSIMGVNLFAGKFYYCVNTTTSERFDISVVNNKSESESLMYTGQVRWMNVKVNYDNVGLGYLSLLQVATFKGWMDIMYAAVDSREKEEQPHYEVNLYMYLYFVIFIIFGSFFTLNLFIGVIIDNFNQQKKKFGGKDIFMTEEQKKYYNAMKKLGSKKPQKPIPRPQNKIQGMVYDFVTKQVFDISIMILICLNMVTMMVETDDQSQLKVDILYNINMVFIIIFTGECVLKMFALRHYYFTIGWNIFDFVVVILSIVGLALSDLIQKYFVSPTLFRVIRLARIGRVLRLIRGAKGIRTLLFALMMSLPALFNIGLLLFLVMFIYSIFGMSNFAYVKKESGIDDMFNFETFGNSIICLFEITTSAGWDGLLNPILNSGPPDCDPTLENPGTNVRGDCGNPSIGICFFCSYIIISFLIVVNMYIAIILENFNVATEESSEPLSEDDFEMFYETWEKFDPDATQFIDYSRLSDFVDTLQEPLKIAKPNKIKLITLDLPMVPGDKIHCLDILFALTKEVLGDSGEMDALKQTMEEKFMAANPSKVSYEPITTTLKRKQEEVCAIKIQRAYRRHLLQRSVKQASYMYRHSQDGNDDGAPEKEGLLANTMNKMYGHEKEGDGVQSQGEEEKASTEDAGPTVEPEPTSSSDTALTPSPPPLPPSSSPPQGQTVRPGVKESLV
T2 sequence (O60939 30-215): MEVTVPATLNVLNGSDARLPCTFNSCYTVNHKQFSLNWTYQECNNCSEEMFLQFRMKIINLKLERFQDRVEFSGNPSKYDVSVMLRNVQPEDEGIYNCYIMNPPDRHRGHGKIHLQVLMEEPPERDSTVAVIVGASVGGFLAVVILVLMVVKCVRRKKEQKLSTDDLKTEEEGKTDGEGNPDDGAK
T2 sequence (Q15858 other isoform, or with tags, fused parts or gaps): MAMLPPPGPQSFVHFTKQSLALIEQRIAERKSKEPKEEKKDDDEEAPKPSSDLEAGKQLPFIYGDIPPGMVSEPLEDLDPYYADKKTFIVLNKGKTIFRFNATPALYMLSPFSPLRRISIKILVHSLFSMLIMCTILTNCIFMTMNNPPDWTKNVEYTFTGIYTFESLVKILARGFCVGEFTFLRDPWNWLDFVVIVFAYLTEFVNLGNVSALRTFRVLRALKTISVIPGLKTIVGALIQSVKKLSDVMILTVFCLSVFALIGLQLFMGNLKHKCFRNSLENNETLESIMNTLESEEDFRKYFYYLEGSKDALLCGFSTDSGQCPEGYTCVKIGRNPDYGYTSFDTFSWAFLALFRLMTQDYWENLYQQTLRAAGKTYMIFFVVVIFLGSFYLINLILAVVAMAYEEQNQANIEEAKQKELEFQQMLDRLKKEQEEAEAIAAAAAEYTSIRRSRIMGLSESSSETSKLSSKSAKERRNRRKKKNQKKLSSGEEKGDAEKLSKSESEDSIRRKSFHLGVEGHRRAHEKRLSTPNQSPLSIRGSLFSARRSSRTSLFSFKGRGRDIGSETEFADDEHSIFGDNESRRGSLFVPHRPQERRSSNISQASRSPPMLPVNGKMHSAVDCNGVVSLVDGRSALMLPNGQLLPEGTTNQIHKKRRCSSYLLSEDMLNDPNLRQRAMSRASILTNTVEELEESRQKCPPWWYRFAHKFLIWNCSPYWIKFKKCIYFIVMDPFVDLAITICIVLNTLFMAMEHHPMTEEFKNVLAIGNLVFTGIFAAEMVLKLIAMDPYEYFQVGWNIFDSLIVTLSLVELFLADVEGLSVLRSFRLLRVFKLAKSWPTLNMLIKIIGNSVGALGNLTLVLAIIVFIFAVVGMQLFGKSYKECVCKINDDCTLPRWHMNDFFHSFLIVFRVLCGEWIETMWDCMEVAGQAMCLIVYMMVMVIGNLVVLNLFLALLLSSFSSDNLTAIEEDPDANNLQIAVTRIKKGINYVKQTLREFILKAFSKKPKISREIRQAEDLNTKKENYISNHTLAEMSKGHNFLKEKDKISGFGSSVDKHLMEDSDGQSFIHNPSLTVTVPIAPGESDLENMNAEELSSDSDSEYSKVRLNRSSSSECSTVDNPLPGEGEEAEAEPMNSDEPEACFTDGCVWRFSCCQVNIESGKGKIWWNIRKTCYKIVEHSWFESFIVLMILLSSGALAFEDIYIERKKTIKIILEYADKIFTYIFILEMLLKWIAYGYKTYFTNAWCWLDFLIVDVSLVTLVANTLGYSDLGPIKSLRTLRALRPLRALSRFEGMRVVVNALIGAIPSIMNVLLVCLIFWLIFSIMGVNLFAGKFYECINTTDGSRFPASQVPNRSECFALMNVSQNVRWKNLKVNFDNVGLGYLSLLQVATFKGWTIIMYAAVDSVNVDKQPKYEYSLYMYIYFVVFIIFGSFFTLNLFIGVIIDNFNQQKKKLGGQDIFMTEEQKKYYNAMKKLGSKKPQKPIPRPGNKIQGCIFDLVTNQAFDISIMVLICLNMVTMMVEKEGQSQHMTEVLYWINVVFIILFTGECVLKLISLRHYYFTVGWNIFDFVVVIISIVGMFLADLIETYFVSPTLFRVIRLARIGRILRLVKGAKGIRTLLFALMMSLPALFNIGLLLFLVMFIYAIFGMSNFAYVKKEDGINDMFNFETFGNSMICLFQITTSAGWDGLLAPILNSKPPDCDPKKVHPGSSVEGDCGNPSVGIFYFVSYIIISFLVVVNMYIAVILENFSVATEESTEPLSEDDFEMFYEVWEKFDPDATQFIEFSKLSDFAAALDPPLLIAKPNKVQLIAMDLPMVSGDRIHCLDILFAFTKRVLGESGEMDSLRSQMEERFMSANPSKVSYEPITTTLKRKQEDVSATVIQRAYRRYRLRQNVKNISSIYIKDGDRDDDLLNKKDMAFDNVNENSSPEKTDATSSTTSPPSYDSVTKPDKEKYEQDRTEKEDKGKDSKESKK
T2 sequence (Q07699 19-218, further chain): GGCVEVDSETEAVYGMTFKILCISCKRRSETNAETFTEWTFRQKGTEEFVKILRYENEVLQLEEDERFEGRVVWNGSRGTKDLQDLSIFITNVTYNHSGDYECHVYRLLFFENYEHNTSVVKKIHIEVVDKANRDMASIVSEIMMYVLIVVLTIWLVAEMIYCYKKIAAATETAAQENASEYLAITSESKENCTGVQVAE

With `CC(C)C[C@H](NC(=O)[C@H](CC(=O)O)NC(=O)[C@H](Cc1ccc(O)cc1)NC(=O)[C@H](CCCCN)NC(=O)[C@@H]1CSSC[C@@H]2NC(=O)[C@H](CCCCN)NC(=O)[C@H](CC(=O)O)NC(=O)[C@H](CC(N)=O)NC(=O)[C@H](CO)NC(=O)[C@@H]3CCCN3C(=O)[C@H](CC(N)=O)NC(=O)[C@@H]3CSSC[C@H](NC(=O)[C@H](C(C)C)NC(=O)[C@H](CC(C)C)NC(=O)[C@H](CO)NC(=O)[C@H](CO)NC(=O)[C@H](CO)NC(=O)[C@H](CCCCN)NC(=O)[C@H](CSSC[C@H](NC(=O)[C@H](C)N)C(=O)N[C@@H](CC(C)C)C(=O)NCC(=O)N[C@@H](Cc4ccccc4)C(=O)NCC(=O)N[C@@H](CCC(=O)O)C(=O)N[C@@H](CCCCN)C(=O)N3)NC2=O)C(=O)N[C@@H](CO)C(=O)N[C@@H](CCC(N)=O)C(=O)N[C@@H](CCCCN)C(=O)N[C@@H](Cc2c[nH]cn2)C(=O)N[C@@H](CCCCN)C(=O)N[C@@H](Cc2c[nH]c3ccccc23)C(=O)N1)C(=O)O` [Ca2a] (H-ACLGFGEKCNPSNDKCCKSSSLVCSQKHKWCKYDL-OH; disulfide 2-17, 9-24, 16-31 (inferred); N-terminus and C-terminus assumed), the “activity on Nav1.7/D816N/E818Q” value in the data set with Nav1.7/D816N/E818Q was “no activity”. Besides, the “inhibition of peak current of Nav1.4/Q657E” value against Nav1.4/Q657E (1 μM, n = 4–5 cells) is given as “significantly inhibited”. The compound further showed an IC50 against Nav1.4/Q657E (mean ± SEM, n = 4–5 cells per data point) of 269 ± 14.9 nM. For the same compound, the “steady-state slow inactivation potential of Nav1.7” value at Nav1.7 is on record as −72.00 ± 2.76 mV. Further, the “inhibitory effect on Nav1.8 currents” value in the data set with Nav1.8 is “no inhibitory effects”. Also, the adverse effects result in data set [1] is “does not cause significant adverse effects”.
